Among the test systems are HOP-62; OVCAR-3; HL-60; Malme-3M; SNB-19; NCI-H226; UO-31; HCT-116; NCI-H522; RXF 393; SF-268; CCRF-CEM; TK-10; KM12; A549; SN12C; EKVX.
Assay in all cases: NCI tumour cell line growth inhibition, 48 h

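Results reflect a 48-hour exposure of cells in 96-well plates to compound at five concentrations. GI50: concentration for 50% inhibition of growth.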 Calls of active or inactive are those of the source. Rule as the data show it: active = GI50 up to about 1.1 µM and inactive = higher.

`COc1cc2c(c(OC)c1)C1(CC(CC#N)C2)SCCS1` (stereo not given): the GI50 in the assay on HOP-62, with OVCAR-3, in the assay on HL-60, in the assay on Malme-3M, in the assay on SNB-19 and in the assay with NCI-H226 was > 100 µM (inactive) in each case. The GI50 in the assay on UO-31 is > 100 µM (inactive); in the assay on HCT-116, > 100 µM (inactive); in the assay on NCI-H522, < 0.01 µM (active); with RXF 393 it was > 100 µM (inactive); in the assay on SF-268, > 100 µM (inactive); in the assay on CCRF-CEM it was > 100 µM (inactive). Besides, the GI50 with TK-10, with KM12, in the assay on A549 and with SN12C was > 100 µM (inactive) each time.

`O=C(c1ccccn1)c1nc(-c2ccc(Cl)c(Cl)c2)nc2ccc(Cl)cc12`: the GI50 with HOP-62 was 21.3 µM (inactive); in the assay on OVCAR-3, 42.7 µM (inactive); in the assay with HL-60, > 100 µM (inactive); in the assay on Malme-3M it was 32.3 µM (inactive); in the assay on NCI-H226, 23.1 µM (inactive); in the assay with UO-31, 56.9 µM (inactive). Also, the GI50 in the assay with HCT-116 is 15.5 µM (inactive); in the assay with RXF 393, 18.7 µM (inactive); in the assay with EKVX, 74.5 µM (inactive); in the assay on CCRF-CEM, 71.1 µM (inactive); with TK-10 it was 67 µM (inactive); with KM12 it was > 100 µM (inactive). Besides, the GI50 with A549 was 41.6 µM (inactive).

`COc1cc2c(cc1OC)C(C(=O)c1cccc(OC)c1OC)C(=O)N(C)CC2` (stereo not given): the GI50 in the assay with HOP-62, in the assay on OVCAR-3, in the assay on HL-60, in the assay on Malme-3M, in the assay with SNB-19 and in the assay with NCI-H226 was > 100 µM (inactive) in each case. In addition, the GI50 with UO-31, in the assay on HCT-116, with NCI-H522, in the assay with RXF 393, in the assay with SF-268 and in the assay with CCRF-CEM was > 100 µM (inactive) in each case. The GI50 in the assay with TK-10, in the assay on KM12, with A549 and with SN12C was > 100 µM (inactive) each time.

In the case of `CNS(=O)(=O)NNS(=O)(=O)c1ccc(Br)cc1`, the GI50 is > 100 µM (inactive) in the assay on HOP-62; > 100 µM (inactive) in the assay on HL-60; > 100 µM (inactive) with Malme-3M; 0.309 µM (active) in the assay on SNB-19; > 100 µM (inactive) in the assay on NCI-H226; 20.6 µM (inactive) in the assay with UO-31. For the same compound, the GI50 was 99.3 µM (inactive) in the assay on HCT-116; > 100 µM (inactive) in the assay with NCI-H522; > 100 µM (inactive) in the assay with RXF 393; > 100 µM (inactive) with EKVX; > 100 µM (inactive) in the assay on SF-268; > 100 µM (inactive) in the assay with CCRF-CEM. In addition, the GI50 in the assay on TK-10 and with A549 was > 100 µM (inactive) throughout.

Turning to `COc1ccc(C2CC(=O)c3c(O)cc(O)cc3O2)cc1O` (stereo not given), the GI50 in the assay with HOP-62, with OVCAR-3, in the assay with HL-60, with Malme-3M, with SNB-19 and in the assay on NCI-H226 was > 100 µM (inactive) each time. Moreover, the GI50 in the assay with UO-31 is 58.7 µM (inactive); with HCT-116, > 100 µM (inactive); with NCI-H522, > 100 µM (inactive); in the assay with EKVX, > 100 µM (inactive); in the assay with SF-268 it was > 100 µM (inactive); with CCRF-CEM, > 100 µM (inactive). The GI50 in the assay on TK-10, with KM12, in the assay on A549 and in the assay on SN12C was > 100 µM (inactive) throughout.

The values are drawn from ChEMBL document CHEMBL1201862, “PubChem BioAssay data set” (2004).
